ChEMBL document CHEMBL4715727, “Design, synthesis, and biological evaluation of a novel series of peripheral-selective noradrenaline reuptake inhibitors-Part 2” (Bioorg Med Chem, 2016)
pIC50: −log10 of the molar value.

What was measured:
[1] = biological target: Sodium-dependent dopamine transporter (Homo sapiens, UniProt Q01959); assay: Inhibition of human DAT expressed in CHO-K1 cells assessed as inhibition of [3H]-dopamine reuptake measured after 60 mins by Microscintillation counting analysis; assay type: cell-based
[2] = Permeability coefficient of the compound at 10 uM at pH 7.4 measured after 3 hrs by PAMPA based LC/MS/MS analysis; assay type: ADME; parameters: unit not given here; conditions: pH 7.4, 3 h
MDR1 (ABCB1, P-gp) = MDR1 (ABCB1, P-gp) (Homo sapiens, UniProt P08183); assay: Substrate activity at human MDR1 expressed in LLC-PK1 cells assessed as efflux ratio of permeability from basolateral to apical side over apical to basolateral side at 10 uM measured after 2 hrs by LC/MS/MS analysis; assay type: ADME, cell-based
CYP2D6 = CYP2D6 (Homo sapiens, UniProt P10635); assay: Inhibition of CYP2D6 (unknown origin) expressed in insect cells assessed as reduction in 1'-hydroxybufuralol formation using bufuralol as substrate at 10 uM incubated for 60 mins by LC/MS/MS analysis; assay type: ADME; conditions: recombinant CYP2D6 expressed in insect cells, probe bufuralol
[3] = biological target: Sodium-dependent serotonin transporter (Homo sapiens, UniProt P31645); assay: Inhibition of human SERT expressed in CHO-K1 cells assessed as inhibition of [3H]-5-hydroxytryptamine reuptake measured after 20 mins by Microscintillation counting analysis; assay type: cell-based
[4] = biological target: Sodium-dependent noradrenaline transporter (Homo sapiens, UniProt P23975); assay: Inhibition of human NET expressed in CHO-K1 cells assessed as inhibition of [3H]-norepinephrine reuptake measured after 45 mins by Microscintillation counting analysis; assay type: cell-based
Cytochrome P450 3A4 = Cytochrome P450 3A4 (Homo sapiens, UniProt P08684); assay: Drug metabolism assessed as CYP3A4 (unknown origin) expressed in microsomes-mediated metabolism by measuring metabolic rate at 1 uM incubated for 10 mins by UPLC analysis; assay type: ADME, Microsome
Cytochrome P450 2D6 [5] = biological target: T1, Cytochrome P450 2D6 (Homo sapiens, UniProt P10635); assay: Drug metabolism assessed as CYP2D6 (unknown origin) expressed in microsomes-mediated metabolism by measuring metabolic rate at 1 uM incubated for 10 mins by UPLC analysis; assay type: ADME, Microsome
Cytochrome P450 2C19 = Cytochrome P450 2C19 (Homo sapiens, UniProt P33261); assay: Drug metabolism assessed as CYP2C19 (unknown origin) expressed in microsomes-mediated metabolism by measuring metabolic rate at 1 uM incubated for 10 mins by UPLC analysis; assay type: ADME, Microsome
[6] = Drug metabolism assessed as CYP2B6/CYP2C9/CYP2E1/CYP2C8/CYP1A2 (unknown origin) expressed in microsomes-mediated metabolism by measuring metabolic rate at 1 uM incubated for 10 mins by UPLC analysis; assay type: ADME, Microsome; conditions: human
Cytochrome P450 2D6 [7] = biological target: T1, Cytochrome P450 2D6; assay: Drug metabolism in human hepatocytes assessed as CYP2D6-mediated N-(((6S,7R)-7-(4-chloro-3-fluorophenyl)-1,4-oxazepan-6-yl)methyl)-2-hydroxyacetamide formation at 10 uM incubated for 6 hrs by LC/MS/MS anlaysis; assay type: ADME, cell-based, Hepatocyte
Cytochrome P450 2D6 [8] = biological target: T1, Cytochrome P450 2D6; assay: Drug metabolism assessed as CYP2D6 (unknown origin)-expressed in microsomes mediated N-(((6S,7R)-7-(4-chloro-3-fluorophenyl)-1,4-oxazepan-6-yl)methyl)-2-hydroxyacetamide formation at 1 uM incubated for 10 mins by UPLC anlaysis; assay type: ADME, Microsome
Rattus norvegicus = assay: Anti-SUI activity in po dosed rat assessed as induction of urethral resistance by measuring increase in leak point pressure measured after 15 to 240 mins; assay type: functional, organism-based; conditions: dose 1-10 mg/kg, time 15-240 min, tested as the 2H-labelled form
hERG (KCNH2) = hERG (KCNH2) (Homo sapiens, UniProt Q12809); assay: Inhibition of human ERG at 10 uM
[9] = Oral bioavailability in Crl:CD(SD)(IGS) rat at 1 mg/kg measured after 8 hrs by LC/MS/MS analysis; assay type: ADME, organism-based; conditions: in vivo
[10] = Ex vivo receptor occupancy at NET in Sprague-Dawley rat left brain cortex assessed as [3H]nisoxetine labelling at 3 mg/kg, iv measured after 20 mins by scintillation counting analysis; assay type: functional

Chain of Sodium-dependent serotonin transporter (P31645 whole entry): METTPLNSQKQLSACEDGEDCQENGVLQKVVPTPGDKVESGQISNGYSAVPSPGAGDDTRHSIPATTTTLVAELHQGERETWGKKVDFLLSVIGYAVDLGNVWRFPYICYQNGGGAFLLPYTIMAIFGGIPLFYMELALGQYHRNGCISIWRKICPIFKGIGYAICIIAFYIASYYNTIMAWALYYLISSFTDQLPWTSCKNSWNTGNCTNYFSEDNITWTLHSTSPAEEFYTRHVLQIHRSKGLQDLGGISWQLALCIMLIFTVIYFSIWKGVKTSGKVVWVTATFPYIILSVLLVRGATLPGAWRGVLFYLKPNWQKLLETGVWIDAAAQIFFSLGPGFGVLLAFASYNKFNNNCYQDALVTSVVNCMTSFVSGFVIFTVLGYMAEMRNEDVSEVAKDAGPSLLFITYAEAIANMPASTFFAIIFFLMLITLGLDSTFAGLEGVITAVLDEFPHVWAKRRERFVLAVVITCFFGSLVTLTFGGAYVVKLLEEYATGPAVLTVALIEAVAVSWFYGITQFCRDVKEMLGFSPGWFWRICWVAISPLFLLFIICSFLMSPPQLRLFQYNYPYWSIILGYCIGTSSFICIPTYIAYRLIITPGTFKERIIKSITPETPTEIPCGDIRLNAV
Chain of MDR1 (ABCB1, P-gp) (P08183 whole entry): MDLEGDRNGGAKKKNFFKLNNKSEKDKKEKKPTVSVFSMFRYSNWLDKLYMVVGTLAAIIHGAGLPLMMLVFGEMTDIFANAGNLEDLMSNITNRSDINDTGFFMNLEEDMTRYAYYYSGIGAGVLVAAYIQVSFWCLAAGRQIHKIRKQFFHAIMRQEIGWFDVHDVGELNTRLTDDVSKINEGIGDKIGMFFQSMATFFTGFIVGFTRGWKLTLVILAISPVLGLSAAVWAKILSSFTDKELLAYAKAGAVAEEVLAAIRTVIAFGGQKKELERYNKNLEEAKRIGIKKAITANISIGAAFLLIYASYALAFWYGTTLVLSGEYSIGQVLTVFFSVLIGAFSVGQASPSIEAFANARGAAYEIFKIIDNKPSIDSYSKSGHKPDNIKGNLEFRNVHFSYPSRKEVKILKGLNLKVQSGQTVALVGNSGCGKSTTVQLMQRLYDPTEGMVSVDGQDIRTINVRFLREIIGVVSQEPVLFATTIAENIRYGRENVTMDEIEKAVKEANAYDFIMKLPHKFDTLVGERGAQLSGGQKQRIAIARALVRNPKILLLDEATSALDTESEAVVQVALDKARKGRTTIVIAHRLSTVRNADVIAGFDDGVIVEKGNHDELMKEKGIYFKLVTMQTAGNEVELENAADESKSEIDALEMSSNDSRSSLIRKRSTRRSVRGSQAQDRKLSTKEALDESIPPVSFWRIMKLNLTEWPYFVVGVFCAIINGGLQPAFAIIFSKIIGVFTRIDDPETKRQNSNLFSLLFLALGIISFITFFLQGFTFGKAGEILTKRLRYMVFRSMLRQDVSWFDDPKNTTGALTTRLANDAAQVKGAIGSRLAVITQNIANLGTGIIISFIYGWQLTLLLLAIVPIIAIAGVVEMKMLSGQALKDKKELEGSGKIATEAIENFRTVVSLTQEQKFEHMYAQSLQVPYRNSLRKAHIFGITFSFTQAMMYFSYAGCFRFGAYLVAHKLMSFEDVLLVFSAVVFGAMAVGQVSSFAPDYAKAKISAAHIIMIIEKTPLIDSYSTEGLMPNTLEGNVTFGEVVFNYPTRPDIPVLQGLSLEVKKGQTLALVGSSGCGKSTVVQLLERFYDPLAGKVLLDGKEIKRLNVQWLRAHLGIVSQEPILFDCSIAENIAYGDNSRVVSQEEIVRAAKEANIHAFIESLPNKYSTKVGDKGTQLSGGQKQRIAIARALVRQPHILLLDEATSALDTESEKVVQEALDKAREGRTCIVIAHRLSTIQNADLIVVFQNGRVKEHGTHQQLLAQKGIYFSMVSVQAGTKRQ
Chain of CYP2D6 (P10635 whole entry): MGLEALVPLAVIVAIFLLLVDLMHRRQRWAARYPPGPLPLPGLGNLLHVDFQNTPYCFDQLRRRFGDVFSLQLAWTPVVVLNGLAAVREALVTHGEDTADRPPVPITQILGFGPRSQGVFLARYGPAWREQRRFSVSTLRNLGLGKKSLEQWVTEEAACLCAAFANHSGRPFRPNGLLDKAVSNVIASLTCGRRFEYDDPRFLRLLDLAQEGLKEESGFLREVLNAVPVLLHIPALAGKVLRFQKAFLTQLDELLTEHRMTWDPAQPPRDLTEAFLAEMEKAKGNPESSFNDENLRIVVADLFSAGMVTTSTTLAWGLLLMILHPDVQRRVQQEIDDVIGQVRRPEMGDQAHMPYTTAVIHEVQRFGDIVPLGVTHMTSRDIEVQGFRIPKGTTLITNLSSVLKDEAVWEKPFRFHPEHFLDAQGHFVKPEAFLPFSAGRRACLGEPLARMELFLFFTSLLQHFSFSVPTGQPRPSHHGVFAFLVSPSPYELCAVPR
T1 sequence (P10635 whole entry): as above
Chain of Cytochrome P450 3A4 (P08684 whole entry): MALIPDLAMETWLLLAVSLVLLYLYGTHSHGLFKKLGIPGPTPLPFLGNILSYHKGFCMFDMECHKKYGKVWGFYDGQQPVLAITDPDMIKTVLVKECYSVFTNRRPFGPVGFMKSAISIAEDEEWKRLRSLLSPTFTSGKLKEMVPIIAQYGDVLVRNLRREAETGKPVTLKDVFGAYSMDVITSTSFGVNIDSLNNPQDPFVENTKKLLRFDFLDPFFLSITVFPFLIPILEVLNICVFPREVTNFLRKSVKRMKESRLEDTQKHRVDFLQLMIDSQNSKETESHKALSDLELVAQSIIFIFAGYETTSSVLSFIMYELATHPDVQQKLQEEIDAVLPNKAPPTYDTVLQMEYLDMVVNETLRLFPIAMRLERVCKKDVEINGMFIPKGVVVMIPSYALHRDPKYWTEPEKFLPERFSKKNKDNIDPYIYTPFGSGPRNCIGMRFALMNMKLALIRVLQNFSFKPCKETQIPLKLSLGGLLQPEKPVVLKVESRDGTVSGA
Chain of Cytochrome P450 2C19 (P33261 whole entry): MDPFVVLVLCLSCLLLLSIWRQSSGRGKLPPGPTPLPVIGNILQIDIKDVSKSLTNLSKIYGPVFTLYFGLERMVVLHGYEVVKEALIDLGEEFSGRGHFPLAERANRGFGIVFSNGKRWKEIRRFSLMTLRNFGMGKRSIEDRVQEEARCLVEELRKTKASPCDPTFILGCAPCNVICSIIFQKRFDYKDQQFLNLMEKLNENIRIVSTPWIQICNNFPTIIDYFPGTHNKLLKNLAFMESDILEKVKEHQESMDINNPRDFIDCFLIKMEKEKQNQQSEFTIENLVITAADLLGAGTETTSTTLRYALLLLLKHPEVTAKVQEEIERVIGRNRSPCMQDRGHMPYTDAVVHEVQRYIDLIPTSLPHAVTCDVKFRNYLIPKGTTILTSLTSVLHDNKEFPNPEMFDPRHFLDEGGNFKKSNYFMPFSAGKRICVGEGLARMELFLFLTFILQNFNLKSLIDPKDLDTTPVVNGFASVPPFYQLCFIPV
Chain of Sodium-dependent dopamine transporter (Q01959 whole entry): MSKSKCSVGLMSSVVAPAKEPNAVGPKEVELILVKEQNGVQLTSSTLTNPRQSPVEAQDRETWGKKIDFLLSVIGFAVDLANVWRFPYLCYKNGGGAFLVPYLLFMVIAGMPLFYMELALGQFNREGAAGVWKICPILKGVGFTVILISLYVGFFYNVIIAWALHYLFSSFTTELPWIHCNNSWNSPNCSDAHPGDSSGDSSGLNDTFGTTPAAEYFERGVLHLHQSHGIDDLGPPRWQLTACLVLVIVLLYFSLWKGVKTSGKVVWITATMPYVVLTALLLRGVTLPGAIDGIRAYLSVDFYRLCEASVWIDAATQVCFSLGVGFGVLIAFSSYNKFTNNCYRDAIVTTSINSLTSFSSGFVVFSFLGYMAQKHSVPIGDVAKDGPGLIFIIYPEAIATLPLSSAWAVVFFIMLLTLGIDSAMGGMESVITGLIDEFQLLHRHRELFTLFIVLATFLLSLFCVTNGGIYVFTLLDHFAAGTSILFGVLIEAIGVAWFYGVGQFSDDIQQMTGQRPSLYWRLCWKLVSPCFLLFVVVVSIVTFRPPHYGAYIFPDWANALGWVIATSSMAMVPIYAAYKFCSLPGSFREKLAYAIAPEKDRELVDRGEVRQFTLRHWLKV
Chain of Sodium-dependent noradrenaline transporter (P23975 whole entry): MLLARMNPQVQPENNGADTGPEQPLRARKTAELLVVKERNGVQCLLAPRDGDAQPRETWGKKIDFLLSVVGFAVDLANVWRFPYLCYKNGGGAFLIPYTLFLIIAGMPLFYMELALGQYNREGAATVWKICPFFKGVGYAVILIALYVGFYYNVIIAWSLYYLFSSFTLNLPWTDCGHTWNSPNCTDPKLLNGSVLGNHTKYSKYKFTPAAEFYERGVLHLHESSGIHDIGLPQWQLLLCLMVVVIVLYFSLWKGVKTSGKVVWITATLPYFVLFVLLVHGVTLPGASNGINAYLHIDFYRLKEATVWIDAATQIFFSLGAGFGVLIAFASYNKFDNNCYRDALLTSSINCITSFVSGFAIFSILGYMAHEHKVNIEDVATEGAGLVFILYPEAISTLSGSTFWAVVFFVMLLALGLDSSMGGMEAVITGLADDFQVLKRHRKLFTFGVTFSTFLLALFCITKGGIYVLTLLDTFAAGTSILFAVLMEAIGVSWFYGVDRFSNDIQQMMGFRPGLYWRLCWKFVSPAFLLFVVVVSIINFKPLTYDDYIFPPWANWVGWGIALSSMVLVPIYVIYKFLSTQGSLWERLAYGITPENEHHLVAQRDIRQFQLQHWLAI

| Compound | pIC50 [1] | Pe [2] | efflux ratio at 2 h, 10 µM (MDR1 (ABCB1, P-gp)) | inhibition at 1 h, 10 µM (CYP2D6) | pIC50 [3] | pIC50 [4] | Drug metabolism (Cytochrome P450 3A4) | Drug metabolism (Cytochrome P450 2D6 [5]) | Drug metabolism (Cytochrome P450 2C19) | Drug metabolism [6] | Drug metabolism (Cytochrome P450 2D6 [7]) | Drug metabolism (Cytochrome P450 2D6 [8]) | Activity (Rattus norvegicus) | inhibition at 10 µM (hERG (KCNH2)) | bioavailability [9] | Occ [10] |
| --- | --- | --- | --- | --- | --- | --- | --- | --- | --- | --- | --- | --- | --- | --- | --- | --- |
| CC(=O)NC[C@@H]1CNCCO[C@H]1c1ccc(Cl)c(Cl)c1.Cl | < 6.00 | 146 | 5 | 26% |  |  |  |  |  |  |  |  |  |  |  |  |
| COC(C)C(=O)NC[C@@H]1CNCCO[C@H]1c1ccc(Cl)c(F)c1.Cl (some centres not stated) | < 6.00 |  | 1.9 | 33% | 6.10 | 8.06 |  |  |  |  |  |  |  |  |  |  |
| CC(C)OCC(=O)NC[C@@H]1CNCCO[C@H]1c1ccc(Cl)c(F)c1.Cl | < 6.00 |  | 1.7 | 66% | 6.41 | 8.32 | 0.064 %/min/pmol | 0.37 %/min/pmol | 0.017 %/min/pmol | 0 %/min/pmol |  |  |  |  |  |  |
| COCC(=O)NC[C@@H]1CNCCO[C@H]1c1ccc(Cl)c(F)c1.Cl | < 6.00 | 221 | 2.1 | 48% | 6.36 | 8.49 | 0 %/min/pmol | 0.081 %/min/pmol | 0.016 %/min/pmol | 0 %/min/pmol | Metabolite_Detected | Metabolite_Detected | Dose-dependent effect |  |  |  |
| CCCC(=O)NC[C@@H]1CNCCO[C@H]1c1ccc(Cl)c(Cl)c1.Cl | < 6.00 | 260 | 3 | 62% | 7.21 | 8.59 |  |  |  |  |  |  |  |  |  |  |
| CCOCC(=O)NC[C@@H]1CNCCO[C@H]1c1ccc(Cl)c(F)c1.Cl | < 6.00 |  | 1.4 | 79% | 6.66 | 8.48 | 0.026 %/min/pmol | 0.365 %/min/pmol | 0.005 %/min/pmol | 0 %/min/pmol |  |  |  |  |  |  |
| Cl.[2H]C([2H])([2H])OCC(=O)NC[C@@H]1CNCCO[C@H]1c1ccc(Cl)c(F)c1 | < 6.00 |  | 2.1 | 49% | 6.17 | 8.48 | 0.015 %/min/pmol | 0.035 %/min/pmol | 0.012 %/min/pmol | 0.008 %/min/pmol | Metabolite_Detected |  |  | 17% | 68% | 3.8% |
| Cl.O=C(NC[C@@H]1CNCCO[C@H]1c1ccc(Cl)c(F)c1)C1COCCO1 (some centres not stated) | < 6.00 |  | 3.6 | 66% | 6.27 | 8.59 |  |  |  |  |  |  |  |  |  |  |
| COCC(=O)NC[C@@H]1CNCCO[C@H]1c1ccc(Cl)c(Cl)c1.Cl | 5.80 | 279 | 2.1 | 70% | 7.15 | 8.92 |  |  |  |  |  |  |  |  |  |  |
| Cl.O=C(NC[C@@H]1CNCCO[C@H]1c1ccc(Cl)c(F)c1)C1CCCO1 (some centres not stated) | < 6.00 |  | 3.5 | 80% | 6.70 | 8.28 |  |  |  |  |  |  |  |  |  |  |
| COCCC(=O)NC[C@@H]1CNCCO[C@H]1c1ccc(Cl)c(F)c1.Cl | < 6.00 | 151 | 12 | 44% | 6.05 | 8.41 |  |  |  |  |  |  |  |  |  |  |
| CCC(=O)NC[C@@H]1CNCCO[C@H]1c1ccc(Cl)c(Cl)c1.Cl | < 6.00 | 207 | 4.8 | 41% | 6.92 | 8.82 |  |  |  |  |  |  |  |  |  |  |
| COC(C)(C)C(=O)NC[C@@H]1CNCCO[C@H]1c1ccc(Cl)c(F)c1.Cl | < 6.00 |  | 2.4 | 42% | 6.28 | 7.68 |  |  |  |  |  |  |  |  |  |  |
